Experimental data from patent publication US5416070A, “Composition for macrophage activation” (ImmunoTherapeutics, Inc., priority 1990, dated 1995).

Assays:
Meth A sarcoma = assay: Effect with lipopolysaccharide on growth of Meth A sarcoma in mice; format: in vivo
Procedure: BALB/C mice 7-8 weeks of age were injected subcutaneously with Meth A sarcoma (1×10^6 cells) and treated intravenously on day 8 with 10 μg of lipopolysaccharide (LPS) from Salmonella typhimurium ReG 30/21 alone or combined with 1 or 10 μg of MDP or Compound IIA. Tumor growth was compared on day 6 following therapy.
The animals were followed and the percent cured determined at 60 days post-injection.

Balb/c mice = assay: Adjuvant activity on antibody producing cells: plaque forming units per spleen after SRBC immunization; format: in vivo
Procedure: The efficacy of the compound of the invention in inducing antibody response was evaluated in an immuno-compromised model using aged Balb/c mice and in normal mice using a suboptimal dose of the immunogen.
[…] The spleen was removed on day 4 and assayed for plaque forming units.
The results (Table 1) indicated a total of 66×10^3 plaque forming units (PFU) per spleen for controls, 198×10^3 PFU per spleen for mice receiving SRBC mixed with 0.1 mg MDP and 442×10^3 PFU for mice receiving SRBC mixed with 0.1 mg. of a compound of the invention IIA. Similarly, young Balb/c mice were immunized intraperitoneally with a suboptimal dose of SRBC (1×10^7 cells) in saline or mixed with 0.01 of 0.1 mg of MDP or IIA.

[1] = test system: human peripheral blood monocytes; assay: Activation of monocytes in vitro measured by production of Interleukin-1-beta (ELISA); format: cell-based; details: 24 Hours
Procedure: (§1) Human peripheral blood monocytes were isolated by density gradient centrifugation as noted in Example 13. The cell number was adjusted to 5×10^5 cells per ml in RPM 1640 media containing 5% human AB negative serum. One ml containing 5×10^5 cells were placed in individual wells of 24-well Plastek tissue culture plate. Various drugs in a volume of 0.5 ml were added at time zero. The compounds were also formulated in liposomes as described in Example 10, and added in a volume of 0.5 ml to individual wells of a 24-well Plastek tissue culture plate. The cells were incubated at 37° C. in a 5% CO2 atmosphere. Aliquots (0.1 ml) of the supernatant were removed at 24 hours and frozen at -20° C. These samples were subsequently assayed for TNF as described in Example 33 and Interleukin-1-beta (IL-1β) using a commercially available ELISA kit from Cistron (Pine Brook, N.J.).

[2] = test system: human peripheral blood monocytes; assay: Activation of monocytes in vitro measured by production of tumor necrosis factor (ELISA); format: cell-based; details: for TNF (pg/ml) at given Concentration of Compound: 24 Hours
Procedure: Human peripheral blood monocytes were isolated by density gradient centrifugation as noted in Example 13. The cell number was adjusted to 5×10^5 cells per ml in RPM 1640 media containing 5% human AB negative serum. One ml containing 5×10^5 cells were placed in individual wells of a 24-well Plastek tissue culture plate. Various drugs in a volume of 0.5 ml were added at time zero. The cells were incubated at 37° C. in a 5% CO2 atmosphere. Aliquots (0.1 ml) of the supernatant were removed at 24 hours and frozen at -80° C. These samples were subsequently assayed for tumor necrosis factor (TNF) activity using a commercially available ELISA Assay from T-Cell Sciences (Cambridge, Mass.).
Human peripheral blood monocytes were isolated by density gradient centrifugation as described in Example 13. The cells were plated in 24-well microliter plates as described in Example 33. The compounds Were prepared in liposomes as described in Example 10, and assayed for TNF production, as described in Example 33. The results are set forth in Table 5, and show significant levels of TNF compared to controls.
as §1

[3] = test system: human peripheral blood monocytes; assay: Activation of human peripheral blood monocytes to the tumoricidal state (I125 labeled A-375 tumor cells); format: cell-based; details: effector:target 10:1, A-375 tumor cells, 72 hours
Procedure: Monocyte tumoricidal activity was determined by the method of Fogler and Fidler (W. E. Fogler and I. J. Fidler, J. Immunol., 136; 2311-2317, 1986). Briefly, human peripheral blood monocytes were isolated by gradient centrifugation on 46% Percoll. Monocytes were then cultured in suspension for 18 hours in RPMI 1640 media containing 5% human sera with or without 1.0 μg/ml of Compound IIA at 1×10^6 monocytes/ml. After incubation monocytes were washed, and 1×10^5 or 5×10^4monocytes allowed to attach to wells of a 96-well microplate for 1 hour, then the plate was washed to remove non-adherent cells; to this, 1×10^4 I^125 labeled A-375 tumor cells were added. Monocytes were cultured with tumor cells for 72 hours. At the end of the 72 hour co-culture period, the plates were washed to remove non-adherent-non-viable tumor cells and the remaining adherent viable I^125 labeled tumor cells determined by lysing the cells with sodium dodecyl sulfate and counting radioactivity in a Gamma Counter.
Activation of human peripheral blood monocytes by liposomes consisting of PC and PG (7:3) containing Compound IIA was determined as described above.
The effector:target cell ratio was 10:1. The cultures contained a final concentration of 1.0 μg/ml of MDP, Compound IIA or Compound IIA in liposomes.

[4] = test system: Human peripheral blood mononuclear cells; assay: Activation of monocytes in vitro measured by in vitro tumor cell cytotoxicity; format: cell-based
Procedure: Human peripheral blood mononuclear cells were isolated by density gradient centrifugation on 46% Percoll. 1×10^5 of the mononuclear cells were plated onto Falcon microliter plates and allowed to adhere for two hours. The non-adherent cells were removed and fresh media added. The cells were allowed to incubate for 24 hours after which various concentrations of the drug either alone or incorporated in liposomes was added. After 24 hours, the plates were washed and 1×10^4 I^125 labelled target cells were added. Following an additional 72 hours of coincubation, the plates were washed and the residual radioactivity determined. The specific cytotoxicity was calculated from the formula: [formula] The results of cytotoxicity assay of various compounds alone or incorporated in liposomes at various concentrations is given in Table 6.

[5] = 1.0 μg combined with 10 μg LPS i.v. on day 8
[6] = 10 μg combined with 10 μg LPS i.v. on day 8

SMILES: CCCCCCCCCCCCCCCC(=O)OCC(COC(=O)C(C)NC(=O)CCC(NC(=O)C(C)NC(=O)C(C)OC1C(NC(C)=O)C(O)OC(CO)C1OC1OC(CO)C(O)C(O)C1NC(C)=O)C(N)=O)OC(=O)CCCCCCCCCCCCCCC [Compound IIA, 4-O-[2-acetamido-2-deoxy-β-D-glucopyranosyl]-2-acetamido-2-deoxy-3-O-[D-2-propanoyl-L-alanyl-D-isoglutaminyl-L-alanyl-1,2-dipalmitoyl-sn-glycerol]-D-glucopyranose]
- Complete Regression at Day 60 (Meth A sarcoma; [5]): 50%
- Percent Change in Average Tumor Area 6 Days Post Treatment (Meth A sarcoma; [5]): -56%
- Complete Regression at Day 60 (Meth A sarcoma; [6]): 100%
- Percent Change in Average Tumor Area 6 Days Post Treatment (Meth A sarcoma; [6]): -67%
- interaction with LPS (Meth A sarcoma; Table 3, Meth A sarcoma): synergistic activity
- PFU ×10^3 (Balb/c mice; 3 months old mice, SRBC inoculum 1 × 10^7 i.p., 0.01 mg/mouse): 184 ×10^3
- PFU ×10^3 (Balb/c mice; 3 months old mice, SRBC inoculum 1 × 10^7 i.p., 0.1 mg/mouse): 468 ×10^3
- PFU ×10^3 (Balb/c mice; 18 months old mice, SRBC inoculum 1 × 10^8 i.p., 0.1 mg/mouse, spleen day 4): 442 ×10^3
- plaque forming units (PFU) per spleen (Balb/c mice; aged Balb/c mice (18 months), SRBC mixed with 0.1 mg): 442×10^3 PFU per spleen
- IL-1-beta (pg/ml) at given Concentration of Compound ([1]; Table 8, Experiment 1, 0.01 μg/ml): 260 pg/mL
- IL-1-beta (pg/ml) at given Concentration of Compound ([1]; Table 8, Experiment 1, 0.1 μg/ml): 220 pg/mL
- IL-1-beta (pg/ml) at given Concentration of Compound ([1]; Table 8, Experiment 1, 1.0 μg/ml): 244 pg/mL
- IL-1-beta (pg/ml) at given Concentration of Compound ([1]; Table 8, Experiment 1, 10.0 μg/ml): 264 pg/mL
- TNF Level ([2]; Experiment 1, free drug in saline 0.1 μg/ml, 24 hours): 1760 pg/mL
- TNF Level ([2]; Experiment 1, free drug in saline 1.0 μg/ml, 24 hours): 1600 pg/mL
- TNF Level ([2]; Experiment 1, free drug in saline 10.0 μg/ml, 24 hours): 4550 pg/mL
- TNF Level ([2]; Experiment 2, free drug in saline 0.1 μg/ml, 24 hours): 1450 pg/mL
- TNF Level ([2]; Experiment 2, free drug in saline 1.0 μg/ml, 24 hours): 1580 pg/mL
- TNF Level ([2]; Experiment 2, free drug in saline 10.0 μg/ml, 24 hours): 1630 pg/mL
- TNF Level ([2]; Experiment 3, free drug in saline 0.1 μg/ml, 24 hours): 1450 pg/mL
- TNF Level ([2]; Experiment 3, free drug in saline 1.0 μg/ml, 24 hours): 1650 pg/mL
- TNF Level ([2]; Experiment 3, free drug in saline 10.0 μg/ml, 24 hours): 1800 pg/mL
- TNF Level ([2]; Table 5, compound incorporated in liposomes, 0.1 μg/ml): 1270 pg/mL
- TNF Level ([2]; Table 5, compound incorporated in liposomes, 1.0 μg/ml): 850 pg/mL
- TNF Level ([2]; Table 5, compound incorporated in liposomes, 10.0 μg/ml): 1050 pg/mL
- TNF (pg/ml) at given Concentration of Compound ([2]; Table 7, Experiment 1, 0.01 μg/ml): 650 pg/mL
- TNF (pg/ml) at given Concentration of Compound ([2]; Table 7, Experiment 1, 0.1 μg/ml): 460 pg/mL
- TNF (pg/ml) at given Concentration of Compound ([2]; Table 7, Experiment 1, 1.0 μg/ml): 620 pg/mL
- TNF (pg/ml) at given Concentration of Compound ([2]; Table 7, Experiment 1, 10.0 μg/ml): 500 pg/mL
- TNF (pg/ml) at given Concentration of Compound ([2]; Table 9, Experiment 2, 0.1 μg/ml): 1400 pg/mL
- TNF (pg/ml) at given Concentration of Compound ([2]; Table 9, Experiment 2, 1.0 μg/ml): 1700 pg/mL
- TNF (pg/ml) at given Concentration of Compound ([2]; Table 9, Experiment 2, 10.0 μg/ml): 1070 pg/mL
- PERCENT CYTOTOXICITY ([3]; Experiment 1, 1.0 μg/ml): 59%
- PERCENT CYTOTOXICITY ([3]; Experiment 2, 1.0 μg/ml): 37%
- Cytotoxicity ([4]; PC/PS liposomes (7:3), 0.1 μg/ml): 1.0%
- Cytotoxicity ([4]; PC/PS liposomes (7:3), 1.0 μg/ml): 8.0%
- Cytotoxicity ([4]; PC/PS liposomes (7:3), 10.0 μg/ml): 12.0%
- Cytotoxicity ([4]; no formulation given (drug alone), 0.1 μg/ml): 5.0%
- Cytotoxicity ([4]; no formulation given (drug alone), 1.0 μg/ml): 4.0%
- Cytotoxicity ([4]; no formulation given (drug alone), 10.0 μg/ml): 3.0%
